Assay results taken from the CheMixHub viscosity set.

Experiment: xn = mol fraction of the nth substance listed

CC(O)CO (stereo not drawn) + O
Conditions	viscosity [mPa·s]
293.15 K, 101 kPa, x1 = 0.0256	1.469
293.15 K, 101 kPa, x1 = 0.0558	2.125
293.15 K, 101 kPa, x1 = 0.092	3.14
293.15 K, 101 kPa, x1 = 0.1362	4.717
293.15 K, 101 kPa, x1 = 0.1913	6.665
293.15 K, 101 kPa, x1 = 0.2619	9.425
293.15 K, 101 kPa, x1 = 0.3556	14.17
293.15 K, 101 kPa, x1 = 0.4862	21.99
293.15 K, 101 kPa, x1 = 0.6804	35.18
298.15 K, 100 kPa, x1 = 0.2	5.452
298.15 K, 100 kPa, x1 = 0.4	12.77
298.15 K, 100 kPa, x1 = 0.6	21.63
298.15 K, 100 kPa, x1 = 0.8	32.85
298.15 K, 101 kPa, x1 = 0.197	5.634
298.15 K, 101 kPa, x1 = 0.3086	9.397
298.15 K, 101 kPa, x1 = 0.3774	12.17
298.15 K, 101 kPa, x1 = 0.4524	15.52
298.15 K, 101 kPa, x1 = 0.5109	18.22
298.15 K, 101 kPa, x1 = 0.5926	22.24
298.15 K, 101 kPa, x1 = 0.6898	27.16
298.15 K, 101 kPa, x1 = 0.8043	33.02
298.15 K, 101 kPa, x1 = 0.8747	36.98
298.15 K, 101 kPa, x1 = 0.9466	41.1
298.15 K, 101.3 kPa, x1 = 0.03	1.311
298.15 K, 101.3 kPa, x1 = 0.06	1.851
298.15 K, 101.3 kPa, x1 = 0.1	2.733
298.15 K, 101.3 kPa, x1 = 0.12	3.233
298.15 K, 101.3 kPa, x2 = 0.044	41.25
303.15 K, 101 kPa, x1 = 0.0101	0.902
303.15 K, 101 kPa, x1 = 0.02	1.022
303.15 K, 101 kPa, x1 = 0.0256	1.133
303.15 K, 101 kPa, x1 = 0.03	1.143
303.15 K, 101 kPa, x1 = 0.0399	1.282
303.15 K, 101 kPa, x1 = 0.0501	1.424
303.15 K, 101 kPa, x1 = 0.0558	1.572
303.15 K, 101 kPa, x1 = 0.0598	1.568
303.15 K, 101 kPa, x1 = 0.07	1.726
303.15 K, 101 kPa, x1 = 0.08	1.896
303.15 K, 101 kPa, x1 = 0.0899	2.059
303.15 K, 101 kPa, x1 = 0.092	2.236
303.15 K, 101 kPa, x1 = 0.1	2.246
303.15 K, 101 kPa, x1 = 0.1362	3.17
303.15 K, 101 kPa, x1 = 0.1913	4.481
303.15 K, 101 kPa, x1 = 0.2619	6.027
303.15 K, 101 kPa, x1 = 0.3556	8.744
303.15 K, 101 kPa, x1 = 0.4862	13.55
303.15 K, 101 kPa, x1 = 0.6804	21
303.15 K, 101 kPa, x2 = 0.97	1.143
308.15 K, 101 kPa, x1 = 0.0101	0.81
308.15 K, 101 kPa, x1 = 0.02	0.91
308.15 K, 101 kPa, x1 = 0.0399	1.13
308.15 K, 101 kPa, x1 = 0.0501	1.249
308.15 K, 101 kPa, x1 = 0.0598	1.373
308.15 K, 101 kPa, x1 = 0.07	1.499
308.15 K, 101 kPa, x1 = 0.08	1.642
308.15 K, 101 kPa, x1 = 0.0899	1.775
308.15 K, 101 kPa, x1 = 0.1	1.927
313.15 K, 101 kPa, x1 = 0.0101	0.732
313.15 K, 101 kPa, x1 = 0.02	0.82
313.15 K, 101 kPa, x1 = 0.0256	0.9114
313.15 K, 101 kPa, x1 = 0.03	0.907
313.15 K, 101 kPa, x1 = 0.0399	1.005
313.15 K, 101 kPa, x1 = 0.0501	1.105
313.15 K, 101 kPa, x1 = 0.0558	1.267
313.15 K, 101 kPa, x1 = 0.0598	1.213
313.15 K, 101 kPa, x1 = 0.07	1.315
313.15 K, 101 kPa, x1 = 0.08	1.437
313.15 K, 101 kPa, x1 = 0.0899	1.543
313.15 K, 101 kPa, x1 = 0.092	1.703
313.15 K, 101 kPa, x1 = 0.1	1.671
313.15 K, 101 kPa, x1 = 0.1362	2.278
313.15 K, 101 kPa, x1 = 0.1913	2.952
313.15 K, 101 kPa, x1 = 0.2619	4.008
313.15 K, 101 kPa, x1 = 0.3556	5.698
313.15 K, 101 kPa, x1 = 0.4862	8.384
313.15 K, 101 kPa, x1 = 0.6804	12.88
313.15 K, 101 kPa, x2 = 0.97	0.9218
318.15 K, 101 kPa, x1 = 0.0101	0.667
318.15 K, 101 kPa, x1 = 0.02	0.743
318.15 K, 101 kPa, x1 = 0.03	0.819
318.15 K, 101 kPa, x1 = 0.0399	0.904
318.15 K, 101 kPa, x1 = 0.0501	0.99
318.15 K, 101 kPa, x1 = 0.0598	1.078
318.15 K, 101 kPa, x1 = 0.07	1.168
318.15 K, 101 kPa, x1 = 0.08	1.268
318.15 K, 101 kPa, x1 = 0.0899	1.361
318.15 K, 101 kPa, x1 = 0.1	1.466
323.15 K, 100 kPa, x1 = 0.2	2.308
323.15 K, 100 kPa, x1 = 0.4	4.7
323.15 K, 100 kPa, x1 = 0.6	7.261
323.15 K, 100 kPa, x1 = 0.8	9.984
323.15 K, 101 kPa, x1 = 0.0101	0.611
323.15 K, 101 kPa, x1 = 0.02	0.678
323.15 K, 101 kPa, x1 = 0.0256	0.7514
323.15 K, 101 kPa, x1 = 0.03	0.744
323.15 K, 101 kPa, x1 = 0.0558	0.9714
323.15 K, 101 kPa, x1 = 0.092	1.282
323.15 K, 101 kPa, x1 = 0.1362	1.644
323.15 K, 101 kPa, x1 = 0.1913	2.138
323.15 K, 101 kPa, x1 = 0.2619	2.813
323.15 K, 101 kPa, x1 = 0.3556	3.891
323.15 K, 101 kPa, x1 = 0.4862	5.583
323.15 K, 101 kPa, x1 = 0.6804	8.332

CC(O)CO (stereo not drawn) + CS(C)=O
viscosity [mPa·s], 100 kPa
Conditions	293.15 K	298.15 K	303.15 K	308.15 K	313.15 K	318.15 K
x1 = 0.0513	2.52	2.24	2.04	1.8	1.65	1.55
x1 = 0.1024	2.82	2.51	2.28	1.99	1.82	1.7
x1 = 0.1534	3.19	2.82	2.55	2.21	2.01	1.87
x1 = 0.2043	3.61	3.17	2.86	2.44	2.22	2.06
x1 = 0.255	4.08	3.54	3.19	2.72	2.46	2.27
x1 = 0.3056	4.63	4	3.58	3.02	2.72	–
x1 = 0.356	5.31	4.56	4.03	3.38	3.04	–
x1 = 0.4064	6.1	5.21	4.56	3.82	3.39	–
x1 = 0.4566	7.04	5.93	5.17	4.28	3.8	–
x1 = 0.5066	8.19	6.88	5.94	4.84	4.25	–
x1 = 0.5565	9.53	7.93	6.78	5.52	4.8	–
x1 = 0.6063	11.3	9.3	7.84	6.36	5.45	–
x1 = 0.6556	13.5	11	9.26	7.35	6.26	–
x1 = 0.7055	16.3	13.1	10.9	8.58	7.23	–
x1 = 0.7549	19.9	15.8	12.8	10.1	8.38	–
x1 = 0.8042	24.4	19	15.4	12	9.8	–
x1 = 0.8533	30.1	23.2	18.5	14.3	11.5	–
x1 = 0.9024	37.7	28.7	22.7	17.2	13.7	–
x1 = 0.9512	47.5	35.5	27.6	20.7	16.2	–
